Laboratory results published in US20120323164A1, “PHOTODYNAMIC THERAPY WITH PHTHALOCYANINES AND RADICAL SOURCES” (Case Western Reserve University, priority 2011, published 2012).
Several values for one entry are separate records, joined by “and”; a condition that tells them apart may be missing. Equal entries are not always repeated. Where two headings read alike, the source gives them in different places.

Experiments:
[1] = Qualitative solubility in organic solvents
[2] = for decomp (%) of Pc 4: Pc 4 in toluene ~9 μM, white light 1.2 kJ/s/m^2
Experimental: The beam intensity was checked before each measurement.
Solutions for the photodecomposition experiments were prepared as follows.

[3] = Photodecomposition of phthalocyanines in toluene under white light, no added radical source; settings: for decomp (%): toluene ~9 μM, white light 1.2 kJ/s/m^2
Experimental: The distance between the cuvette face and the lamp filament was 30 cm. Determination of the beam intensity at the cuvette face was made with a powermeter (Powermax, pm10, Coherent, Santa Clara, Calif.). The beam intensity was checked before each measurement.
Solutions for the photodecomposition experiments were prepared as follows. […] This assumption was justified on the basis that all of the silicon phthalocyanines studied contained simple, unsubstituted phthalocyanine rings. The extinction coefficients of the aluminum phthalocyanines were assumed to be 2.3×10^5, the extinction coefficient of AlPcOSi(CH3)2(CH2)3N(CH3)2, Pc 1.
The absorbance of the Q band of the solution, A, was determined with a spectrophotometer (Lambda 25, Perkin Elmer, Shelton, Conn.; fused silica cuvettes, 1.00 cm, 3.5 mL, Fisher Scientific). From A, ε, the cuvette path length, b, and Beer's law, the concentration of the solution, c, was determined. The solution was then diluted with toluene to a concentration of 9.2 μM. To verify that this was the concentration of the solution, its absorbance was measured again.
In a typical determination, the solution (3.00 mL) was placed in a cuvette (1.00 cm, 3.5 mL, Fisher Scientific, Pittsburgh, Pa.) and its absorbance was measured with the spectrometer (Lambda 25) before irradiation and at 2, 4, 6 and 8 h.
where A0 is the absorbance of the solution at time 0, and At is the absorbance at time t.

[4] = time 0 h, alkene 1:100 mole ratio
[5] = time 0 h, alkene 1:1000 mole ratio
[6] = time 2 h, alkene 1:100 mole ratio
[7] = time 2 h, alkene 1:1000 mole ratio
[8] = time 4 h, alkene 1:100 mole ratio
[9] = time 4 h, alkene 1:1000 mole ratio
[10] = time 6 h, alkene 1:100 mole ratio
[11] = time 6 h, alkene 1:1000 mole ratio
[12] = time 8 h, alkene 1:100 mole ratio
[13] = time 8 h, alkene 1:1000 mole ratio
[14] = time 2 h, radiation 86 kJ/mol × 10^−6, no added alkene
[15] = time 4 h, radiation 172 kJ/mol × 10^−6, no added alkene
[16] = time 6 h, radiation 258 kJ/mol × 10^−6, no added alkene
[17] = time 8 h, radiation 344 kJ/mol × 10^−6, no added alkene

| Compound | solubility (in words) [1] | decomp (%) ([3]; time 0 h, no added alkene) | decomp (%) [3, 14] | decomp (%) [3, 15] | decomp (%) [3, 16] | decomp (%) [3, 17] | also measured |
| --- | --- | --- | --- | --- | --- | --- | --- |
| ZnPc[2,3-O(C2H4CH(CH3)CH2)2C2H4CH(CH3)2]2 [Pc 275] | slightly soluble in CH2Cl2, dimethylformamide, toluene, and hexanes | – | – | – | – | – | – |
| SiNc[OSi(CH3)2(CH2)3N(CH3)2]2 [Compound 41] | soluble in CH2Cl2, dimethylformamide, and toluene, and insoluble in hexanes | – | – | – | – | – | – |
| CC(C)=CCC/C(C)=C/CC/C(C)=C/CO [farnesol] | – | – | – | – | – | – | effectiveness of alkene in decreasing photostability of Pc 4 (in words) [2]: most effective; decomp (%) of Pc 4 [2, 4]: 0%; decomp (%) of Pc 4 [2, 5]: 0%; decomp (%) of Pc 4 [2, 6]: 13%; decomp (%) of Pc 4 [2, 7]: 79%; decomp (%) of Pc 4 [2, 8]: 20%; decomp (%) of Pc 4 [2, 9]: 93%; decomp (%) of Pc 4 [2, 10]: 38%; decomp (%) of Pc 4 [2, 11]: 99%; decomp (%) of Pc 4 [2, 12]: 50%; decomp (%) of Pc 4 [2, 13]: 99% |
| CCCCC/C=C\C/C=C\CCCCCCCC(=O)O.CCCCC/C=C\C/C=C\CCCCCCCC(=O)O.CN(C)CCC[Si](C)(C)O[Si]1(O[Si](C)(C)CCCN(C)C)n2c3c4ccccc4c2N=C2N=C(N=c4c5ccccc5c(n41)=NC1=NC(=N3)c3ccccc31)c1ccccc12 [Pc 289, SiPc[OSi(CH3)2(CH2)3NH(CH3)2]2^2+ [OC(O)(CH2)6(CH2CH═CH)2(CH2)4CH3]2] | soluble in ethanol, CH2Cl2 and dimethylformamide, moderately soluble in toluene, and insoluble in hexanes | 0 | 18% | 19% | 20% | 21% | – |
| C=C[Si](C=C)(C=C)O[Si]1(O[Si](C=C)(C=C)C=C)n2c3c4ccccc4c2N=C2N=C(N=c4c5ccccc5c(n41)=NC1=NC(=N3)c3ccccc31)c1ccccc12 [Pc 279, SiPc[OSi(CH═CH2)3]2] | soluble in CH2Cl2, dimethylformamide, pyridine and toluene, and insoluble in hexanes and methanol | 0 | 0% | 0% | 0% | 0% | photostability (in words) ([3]; white light, toluene, no added alkene): quite stable, remaining unchanged during 8 hours of irradiation |
| CCCCC/C=C\C/C=C\CCCCCCCC(=O)O [linoleic acid] | – | – | – | – | – | – | decomp (%) of Pc 4 [2, 5]: 0%; decomp (%) of Pc 4 [2, 7]: 40%; decomp (%) of Pc 4 [2, 9]: 72%; decomp (%) of Pc 4 [2, 11]: 89%; decomp (%) of Pc 4 [2, 13]: 99% |
| CCCCCCCC/C=C\CCCCCCCC(=O)O[Si]1(OC(=O)CCCCCCC/C=C\CCCCCCCC)n2c3c4ccccc4c2N=C2N=C(N=c4c5ccccc5c(n41)=NC1=NC(=N3)c3ccccc31)c1ccccc12 [Pc 295, SiPc[OC(O)(CH2)7CH═CH(CH2)7CH3]2] | soluble in CH2Cl2, dimethylformamide, pyridine and toluene, slightly soluble in hexanes, and insoluble in methanol | 0 | 2% | 3% | 3% | 4% | – |
| CC/C=C\C/C=C\C/C=C\CCCCCCCC(=O)O.CC/C=C\C/C=C\C/C=C\CCCCCCCC(=O)O.CN(C)CCC[Si](C)(C)O[Si]1(O[Si](C)(C)CCCN(C)C)n2c3c4ccccc4c2N=C2N=C(N=c4c5ccccc5c(n41)=NC1=NC(=N3)c3ccccc31)c1ccccc12 [Pc 290, SiPc[OSi(CH3)2(CH2)3NH(CH3)2]2^2+ [OC(O)(CH2)6(CH2CH═CH)3CH2CH3]2] | soluble in ethanol, CH2Cl2 and dimethylformamide, moderately soluble in toluene, and insoluble in hexanes | – | – | – | – | – | – |
| CC(C)=CCC/C(C)=C/CO [geraniol] | – | – | – | – | – | – | effectiveness of alkene in decreasing photostability of Pc 4 (in words) [2]: most effective; decomp (%) of Pc 4 [2, 4]: 0%; decomp (%) of Pc 4 [2, 5]: 0%; decomp (%) of Pc 4 [2, 6]: 10%; decomp (%) of Pc 4 [2, 7]: 87%; decomp (%) of Pc 4 [2, 8]: 14%; decomp (%) of Pc 4 [2, 9]: 98%; decomp (%) of Pc 4 [2, 10]: 21%; decomp (%) of Pc 4 [2, 11]: 99%; decomp (%) of Pc 4 [2, 12]: 30%; decomp (%) of Pc 4 [2, 13]: 99% |
| NiPc[2,3-O(C2H4CH(CH3)CH2)2C2H4CH(CH3)2]2 [Pc 274] | slightly soluble in CH2Cl2, dimethylformamide, toluene, and hexanes | – | – | – | – | – | – |
| CCCCC/C=C\C/C=C\C/C=C\C/C=C\CCCC(=O)O.CCCCC/C=C\C/C=C\C/C=C\C/C=C\CCCC(=O)O.CN(C)CCC[Si](C)(C)O[Si]1(O[Si](C)(C)CCCN(C)C)n2c3c4ccccc4c2N=C2N=C(N=c4c5ccccc5c(n41)=NC1=NC(=N3)c3ccccc31)c1ccccc12 [Pc 291, SiPc[OSi(CH3)2(CH2)3NH(CH3)2]2^2+ [OC(O)(CH2)2(CH2CH═CH)4(CH2)4CH3]2] | soluble in ethanol, CH2Cl2 and dimethylformamide, moderately soluble in toluene, and insoluble in hexanes | 0 | 18% | 19% | 20% | 20% | – |
| SiPc[O(CH2CH═C(CH3)CH2)2CH2CH═C(CH3)2]2 [Pc 303] | soluble in CH2Cl2, dimethylformamide, pyridine and toluene, and insoluble in hexanes and methanol | 0 | 1% | 2% | 2% | 2% | stability in the dark [3]: stable in the dark |
| SiPc[OC(O)(CH2)2(CH2CH═CH)4(CH2)4CH3]2 [Pc 299] | soluble in CH2Cl2, dimethylformamide, pyridine and toluene, slightly soluble in hexanes, and insoluble in methanol | 0 | 7% and 12% | 12% and 21% | 14% and 27% | 17% and 33% | – |
| HOSiPcOSi(CH3)2(CH2)3N(C2H5)2 [Pc 34] | soluble in CH2Cl2, dimethylformamide, and toluene, and insoluble in hexanes | – | – | – | – | – | – |
| SiPc[O(CH2)4CH3]2 [Pc 307] | soluble in CH2Cl2, dimethylformamide, pyridine and toluene, and insoluble in hexanes and methanol | 0 | 23% | 55% | 80% | 90% | stability in the dark [3]: stable in the dark |
| CC1=C(/C=C/C(C)=C/C=C/C(C)=C/C(=O)O)C(C)(C)CCC1.CC1=C(/C=C/C(C)=C/C=C/C(C)=C/C(=O)O)C(C)(C)CCC1.CN(C)CCC[Si](C)(C)O[Si]1(O[Si](C)(C)CCCN(C)C)n2c3c4ccccc4c2N=C2N=C(N=c4c5ccccc5c(n41)=NC1=NC(=N3)c3ccccc31)c1ccccc12 [Pc 293, SiPc[OSi(CH3)2(CH2)3NH(CH3)2]2^2+ [OC(O)(CH═C(CH3)CH═CH)2C6H6(CH3)3]2] | soluble in ethanol, CH2Cl2 and dimethylformamide, moderately soluble in toluene, and insoluble in hexanes | – | – | – | – | – | – |
| SiPc[OC(O)(CH2)6(CH2CH═CH)2(CH2)4CH3]2 [Pc 296] | soluble in CH2Cl2, dimethylformamide, pyridine and toluene, slightly soluble in hexanes, and insoluble in methanol | 0 | 2% | 3% | 4% | 5% | – |
| CC(C)=CCC/C(C)=C/CC/C(C)=C/CC/C=C(\C)CC/C=C(\C)CCC=C(C)C [squalene] | – | – | – | – | – | – | decomp (%) of Pc 4 [2, 4]: 0%; decomp (%) of Pc 4 [2, 5]: 0%; decomp (%) of Pc 4 [2, 6]: 50%; decomp (%) of Pc 4 [2, 7]: 57%; decomp (%) of Pc 4 [2, 8]: 75%; decomp (%) of Pc 4 [2, 9]: 81%; decomp (%) of Pc 4 [2, 10]: 87%; decomp (%) of Pc 4 [2, 11]: 92%; decomp (%) of Pc 4 [2, 12]: 94%; decomp (%) of Pc 4 [2, 13]: 96% |
| SiPc[OC(O)CH2(CH2CH═CH)6CH2CH3]2 [Pc 300] | soluble in CH2Cl2, dimethylformamide, pyridine and toluene, slightly soluble in hexanes, and insoluble in methanol | 0 | 16% | 34% | 46% | 56% | – |
| CC/C=C\C/C=C\C/C=C\C/C=C\C/C=C\C/C=C\CCC(=O)O.CC/C=C\C/C=C\C/C=C\C/C=C\C/C=C\C/C=C\CCC(=O)O.CN(C)CCC[Si](C)(C)O[Si]1(O[Si](C)(C)CCCN(C)C)n2c3c4ccccc4c2N=C2N=C(N=c4c5ccccc5c(n41)=NC1=NC(=N3)c3ccccc31)c1ccccc12 [Pc 292, SiPc[OSi(CH3)2(CH2)3NH(CH3)2]2^2+ [OC(O)CH2(CH2CH═CH)6CH2CH3]2^−] | soluble in ethanol, CH2Cl2 and dimethylformamide, moderately soluble in toluene, and insoluble in hexanes | 0 | 20% | 21% | 22% | 22% | – |
| CoPc[2,3-O(C2H4CH(CH3)CH2)2C2H4CH(CH3)2]2 [Pc 273] | slightly soluble in CH2Cl2, dimethylformamide, toluene, and hexanes | – | – | – | – | – | – |
| CC(C)CCCC(C)CCCC(C)CCOc1cc2c(cc1OCCC(C)CCCC(C)CCCC(C)C)-c1nc-2nc2[nH]c(nc3nc(nc4[nH]c(n1)c1ccccc41)-c1ccccc1-3)c1ccccc21 (centres unmarked) [Pc 272, H2Pc[2,3-O(C2H4CH(CH3)CH2)2C2H4CH(CH3)2]2] | soluble in CH2Cl2 and toluene, and slightly soluble in dimethylformamide and hexanes | – | – | – | – | – | – |
| C1=C\CC/C=C\CC/1 [1,5-cyclooctadiene] | – | – | – | – | – | – | decomp (%) of Pc 4 [2, 5]: 0%; decomp (%) of Pc 4 [2, 7]: 23%; decomp (%) of Pc 4 [2, 9]: 49%; decomp (%) of Pc 4 [2, 11]: 69%; decomp (%) of Pc 4 [2, 13]: 83% |
